The results in this text go back to EP0326331B1, “Substituted quinolines and cinnolines” (Dow AgroSciences LLC, priority 1988, dated 1989).

Holding throughout (format): in vivo
Experiment [1] relates to Pseudoperonospora cubensis (downy mildew). The experiment in a line: Test 1 greenhouse foliar spray screen, downy mildew on squash. Particulars: Pseudoperonospora cubensis, foliar, Test 1, foliar spray on squash; disease control rating at 400 ppm / 100 ppm; read-out: DOWN MDEW.
In experiment [2] the test system is melon aphids (Aphis gossypii Glover). The experiment in a line: Mite/insect screen, MA. Particulars: Aphis gossypii, foliar, percent mortality, foliar spray on squash, read-out: MA RESULTS %; for mortality at 200 ppm: rate 200 ppm; for mortality at 400 ppm: rate 400 ppm. The essentials: (§1)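 Compounds dissolved in acetone/alcohol (50:50) with TOXIMUL R and S emulsifiers, diluted in water to test concentrations, and sprayed to runoff on both leaf surfaces at 10 psi, then dried 1 h. For armyworm, excised treated leaves were offered to larvae; percent mortality scored after standard exposure periods.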

In experiment [3] the test system is corn rootworm. Nature of the experiment: Mite/insect screen, CRW. As to conditions: percent mortality, read-out: CRW RESULTS %; for mortality at 12 ppm: CRW rate 12.00 ppm; for mortality at 24 ppm: CRW rate 24.00 ppm. In outline:
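Compounds dissolved in 50:50 acetone/alcohol with TOXIMUL R and S emulsifiers (23 and 13 g/L), then diluted in water to the stated test concentrations. Percent mortality of corn rootworm scored after standard exposure periods.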

For experiment [4], the system named is Pyricularia oryzae (rice blast). The experiment in a line: whole plant or invertebrate. As to conditions: Pyricularia oryzae, foliar, read-out: RICE BLAST, Test 1, foliar spray on rice; disease control rating at 400 ppm / 100 ppm.
Experiment [5] relates to Erysiphe graminis tritici (powdery mildew). The experiment in a line: Test 1 greenhouse foliar spray screen, powdery mildew on wheat. As to conditions: Blumeria graminis, foliar, Test 1, foliar spray on wheat; disease control rating at 400 ppm / 100 ppm; read-out: POWD MDEW.
Experiment [6] concerns Puccinia recondita tritici (leaf rust). Nature of the experiment: Test 1 greenhouse foliar spray screen, leaf rust on wheat. As to conditions: Puccinia recondita, foliar, Test 1, foliar spray on wheat; disease control rating at 400 ppm / 100 ppm.
The subject of experiment [7] is southern armyworm (Spodopetra eridania Cramer). The experiment in a line: Mite/insect screen, SAW. As to conditions: Spodoptera eridania, foliar, percent mortality, foliar spray on squash, read-out: SAW RESULTS %; for mortality at 200 ppm: rate 200 ppm; for mortality at 400 ppm: rate 400 ppm. In outline: as §1
Experiment [8] deals with Botrytis cinerea (gray mold). The experiment in a line: Test 1 greenhouse foliar spray screen, gray mold on grape berries. As to conditions: Botrytis cinerea, foliar; Test 1, spray on grape berries; disease control rating at 400 ppm / 100 ppm.
For experiment [9], the system named is Twospotted spider mites (Tetranychus urticae Koch). The experiment in a line: Mite/insect screen, SM. As to conditions: Tetranychus urticae, foliar, percent mortality, foliar spray on squash, read-out: SM RESULTS %; for mortality at 200 ppm: rate 200 ppm; for mortality at 400 ppm: rate 400 ppm. In outline: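 Compounds dissolved in 50:50 acetone/alcohol containing sulfonate/nonionic emulsifier blends, then diluted with water to the indicated concentrations. Leaves sprayed on both surfaces to runoff at 10 psi and dried one hour. Percent mortality scored after standard exposure periods.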

As for `CCOc1ccc2nc(C)cc(OCCCOCc3ccccc3)c2c1` [Example 279, 6-ethoxy-2-methyl-4-[3-(phenylmethoxy)propoxy]quinoline], the pest or weed control at 400 ppm fell in the range of 90 to 100% in experiment [1]; 90 to 100% in experiment [4]; 0 to 19% in experiment [5]; 90 to 100% in [6]; 0 to 19% in [8]. Further, the mortality at 200 ppm in [2], in [7] and in [9] was 0% throughout. Besides, the values for the mortality at 400 ppm in experiment [2], in [7] and in experiment [9] were 80%, 0% and 0%, respectively. For the same compound, the mortality at 12 ppm in experiment [3] is 0%. In experiment [3], the mortality at 24 ppm was found to be 0%.
Regarding `Clc1cccc2c(NCCc3cccc(Oc4ccccc4)c3)ccnc12` [Example 280, 8-chloro-N-[2-(3-phenoxyphenyl)ethyl]-4-quinolinamine], the pest or weed control at 400 ppm was 90 to 100% in experiment [1]; 90 to 100% in experiment [4]; 90 to 100% in experiment [5]; 90 to 100% in [6]; 0 to 19% in [8]. The mortality at 200 ppm in [2] was found to be 0%; in [7], 60%; in [9], 0%. Besides, the mortality at 400 ppm in experiment [2], in [7] and in experiment [9] was 0% in each case. Also, in experiment [3], the mortality at 12 ppm was 0%. In experiment [3], the mortality at 24 ppm came out at 0%.
Turning to `Clc1cccc2c(NCCCCc3ccccc3)ccnc12` [Example 281, 8-chloro-N-(4-phenylbutyl)-4-quinolinamine], the pest or weed control at 400 ppm in [1] was in the range of 90 to 100%; in experiment [4], 90 to 100%; in experiment [5] it was 20 to 89%; in experiment [6] it was 20 to 89%; in experiment [8] it was 0 to 19%. In addition, the mortality at 200 ppm in experiment [2], in experiment [7] and in experiment [9] was 0% in each case. In addition, the mortality at 400 ppm in experiment [2], in experiment [7] and in [9] was 0% in each case. Further, in [3], the mortality at 12 ppm turned out to be 0%. Also, the mortality at 24 ppm in experiment [3] was determined as 0%.
In the case of `Fc1cccc2c(OCCCc3ccc(Oc4ccccc4)cc3)ccnc12` [Example 282, 8-fluoro-4-[3-(4-phenoxyphenyl)propoxy]quinoline], the pest or weed control at 400 ppm in experiment [1] lay in the range of 0 to 19%; in experiment [4], 20 to 89%; in experiment [5], 0 to 19%; in experiment [6] it was 0 to 19%; in experiment [8], 0 to 19%. Besides, the mortality at 200 ppm in experiment [2], in experiment [7] and in experiment [9] was 0% each time. The mortality at 400 ppm in experiment [2], in experiment [7] and in experiment [9] was 0% each time. For the same compound, the mortality at 12 ppm in [3] was determined as 0%. Besides, the mortality at 24 ppm in experiment [3] came to 0%.
Regarding `CC(CNc1ccnc2cc(Cl)ccc12)c1ccc(Cl)cc1` (centres unmarked) [Example 283, 7-chloro-N-[2-(4-chlorophenyl)propyl]-4-quinolinamine], the pest or weed control at 400 ppm lay within 90 to 100% in experiment [1]; 20 to 89% in experiment [4]; 20 to 89% in experiment [5]; 90 to 100% in [6]; 0 to 19% in experiment [8]. Moreover, the mortality at 200 ppm worked out at 80% in experiment [2], 0% in experiment [7] and 0% in experiment [9]. Also, the mortality at 400 ppm in experiment [2] is 0%; in [7], 0%; in [9] it was 80%. Also, the mortality at 12 ppm in [3] came out at 0%. In experiment [3], the mortality at 24 ppm came out at 0%.
